For series [1], the system named is Marc-145 cells. Description: Cytotoxicity assay (MTT). The conditions noted are these: for TC50: Marc-145, 72 h, MTT, mean ± SD, n = 4; for MNTC: Marc-145, maximum non-cytotoxic concentration (90 % cell viability).
The test system of series [2] is PRRSV. Description: Antiviral assay (CPE/MTT; adsorption inhibition, infection inhibition, virucidal). In kind it is cell-based, porcine reproductive and respiratory syndrome virus. On the set-up: key to IC50: “--”represent not detected owing to the low inhibition ratio. The conditions noted are these: for IC50: PRRSV, mean±SD of four experiments.
Series [3] deals with PPV. The series is described as above. In kind it is cell-based, porcine parvovirus. More on the design: key to IC50: “--” represent not detected owing to the low inhibition ratio. The following applies: for IC50: PPV, mean±SD of four experiments.
Series [4] deals with PK-15 cells. Description: Cytotoxicity assay (MTT). The conditions noted are these: for TC50: PK-15, 72 h, MTT, mean ± SD, n = 4; for MNTC: PK-15, maximum non-cytotoxic concentration (90 % cell viability).
Series [5] concerns DF-1 cells. Description: Cytotoxicity assay (MTT). The conditions noted are these: for TC50: DF-1, 72 h, MTT, mean ± SD, n = 4; for MNTC: DF-1, maximum non-cytotoxic concentration (90 % cell viability).
For series [6], the system named is IBDV. Description: Antiviral assay (CPE/MTT; adsorption inhibition, infection inhibition, virucidal). In kind it is cell-based, infectious bursal disease virus. More on the design: key to IC50: “--” represent not detected owing to the low inhibition ratio. The conditions noted are these: for IC50: IBDV, mean±SD of four experiments.
For series [7], the system named is M. gallisepticum. Description: Antimycoplasma assay, MIC in microtiter plates. The following applies: Mycoplasmoides gallisepticum.
Experimental: Briefly, 96-well microtiter Sensititre plates containing stabilized and freeze-dried antimicrobials were used. Three wells on each plate were set as antimicrobial free growth control. Freshly thawed mycoplasma isolates with known titers were diluted in liquid medium until the number of organisms reached 10^4 color changing units/mL. 50 μL of the diluted culture was transferred into each well of the Sensititre plates. […] The plates were sealed using an adhesive foil and incubated at 36 °C for 14 days. The growth of M. hyopneumoniae was observed daily when the color of the medium changed from red to yellow (phenol red indicator), and the initial and final MICs were recorded.
The mark [8] stands for this setting: M. gallisepticum BG44T (10^4ccu/mL).
Where [9] appears, read: M. gallisepticum PG31 (10^8 ccu/mL).
[10] abbreviates: in words, infection inhibition, virucidal and adsorption inhibition assays.

In general, IC50 refers to the concentration that inhibits the measured activity by half. What is called MIC is the smallest concentration in the dilution series that meets the test's criterion for growth inhibition.

Molecules are shown by their SMILES. Values after ≈ are worked out from the molar mass of the structure shown. Read-outs that look alike come from different tables or passages of the source.

For the molecule `N#CCC(=O)N/N=C/c1cnc2ccccc2n1` [Cy1, bi-deoxy Cyadox], the results for the TC50 in series [1], in series [4] and in series [5] were 37.83 ± 1.67 µg/mL (≈ 158 µM), 23.40 ± 2.14 µg/mL (≈ 97.8 µM) and 32.97 ± 2.35 µg/mL (≈ 138 µM), respectively. Besides, the MNTC in series [1] was 3.9 µg/mL; in series [4], 2.0 µg/mL; in series [5], 2.0 µg/mL. The IC50 entry in series [2] (Inactivation), in series [2] (Prevention), in series [2] (Treatment), in series [3] (Inactivation), in series [3] (Prevention) and in series [3] (Treatment) was “--” throughout. The IC50 result in series [6] (Inactivation), in series [6] (Prevention) and in series [6] (Treatment) was “--” in each case.

`N#CCC(=O)N/N=C/c1cnc2ccccc2[n+]1[O-]` [Cy2, N4-deoxy cyadox]: the TC50 was found to be 96.55 ± 3.12 µg/mL (≈ 378 µM) in series [1], 51.73 ± 2.96 µg/mL (≈ 203 µM) in series [4] and 35.48 ± 2.87 µg/mL (≈ 139 µM) in series [5]. The MNTC in series [1] is 2.0 µg/mL; in series [4] it was 2.0 µg/mL; in series [5], 1.0 µg/mL. In addition, the IC50 entry in series [2] (Inactivation), in series [2] (Prevention), in series [2] (Treatment), in series [3] (Inactivation), in series [3] (Prevention) and in series [3] (Treatment) was “--” throughout. In addition, the IC50 result in series [6] (Inactivation), in series [6] (Prevention) and in series [6] (Treatment) was “--” each time.

For `N#CCC(=O)N/N=C/c1c[n+]([O-])c2ccccc2n1` [Cy10, N1-deoxy cyadox], the figures for the TC50 in series [1], in series [4] and in series [5] were 33.62 ± 1.85 µg/mL (≈ 132 µM), 25.27 ± 1.55 µg/mL (≈ 99 µM) and 49.2 ± 1.93 µg/mL (≈ 193 µM), respectively. The MNTC in series [1], in series [4] and in series [5] was 2.0 µg/mL in each case. Also, the IC50 entry in series [2] (Inactivation), in series [2] (Prevention), in series [2] (Treatment), in series [3] (Inactivation), in series [3] (Prevention) and in series [3] (Treatment) was “--” in each case. The IC50 result in series [6] (Inactivation), in series [6] (Prevention) and in series [6] (Treatment) was “--” each time.

As to `CN1C[C@@H]2C[C@H]1CN2c1cc2c(cc1F)c(=O)c(C(=O)O)cn2C1CC1` [Danofloxacin, danofloxacin], the MIC in series [7] (setting [8]) and in series [7] (setting [9]) was 0.05 µg/mL (≈ 0.14 µM) in each case.

As to `C[C@H]1c2cccc(O)c2C(=O)C2=C(O)[C@]3(O)C(=O)C(C(N)=O)=C(O)[C@@H](N(C)C)[C@@H]3[C@@H](O)[C@@H]21` [Doxycycline, doxycycline], the results for the MIC in series [7] (setting [8]) and in series [7] (setting [9]) were 0.1 µg/mL (≈ 0.225 µM) and 0.2 µg/mL (≈ 0.45 µM), respectively.

Consider `CO[C@@H]1[C@@H](O[C@@H]2O[C@H](C)[C@@H](O[C@H]3C[C@@](C)(O)[C@@H](OC(=O)CC(C)C)[C@H](C)O3)[C@H](N(C)C)[C@H]2O)[C@@H](CC=O)C[C@@H](C)[C@@H](O)/C=C/C=C/C[C@@H](C)OC(=O)C[C@H]1O` [Kitasamycin, kitasamycin], for which the MIC in series [7] (setting [8]) and in series [7] (setting [9]) was 0.05 µg/mL (≈ 0.0636 µM) throughout.

With `CCC[C@@H]1C[C@@H](C(=O)N[C@@H]([C@H]2O[C@H](SC)[C@H](O)[C@@H](O)[C@H]2O)[C@@H](C)O)N(C)C1` [Lincomycin, lincomycin], the minimum inhibitory concentration (MIC) in series [7] (setting [8]) and in series [7] (setting [9]) was 8 µg/mL (≈ 19.7 µM) throughout.

`CC(=O)c1nc2ccccc2nc1C` [M1, bi-deoxy Mequindox]: the TC50 was determined as 70.77 ± 1.57 µg/mL (≈ 380 µM) in series [1], 72.90 ± 2.66 µg/mL (≈ 391 µM) in series [4] and 54.8 ± 1.93 µg/mL (≈ 294 µM) in series [5]. Further, the MNTC was 1.0 µg/mL in series [1], 2.0 µg/mL in series [4] and 1.0 µg/mL in series [5]. For the same molecule, the IC50 entry in series [2] (Inactivation), in series [2] (Prevention), in series [2] (Treatment), in series [3] (Inactivation), in series [3] (Prevention) and in series [3] (Treatment) was “--” each time. For the same molecule, the half-inhibitory concentration (IC50) entry in series [6] (Inactivation), in series [6] (Prevention) and in series [6] (Treatment) was “--” in each case.

For `Cc1c(C(C)O)nc2ccccc2[n+]1[O-]` (centres unmarked) [M4, carbonyl reduction N1-deoxy mequindox], the TC50 in series [1] worked out at 128.62 ± 2.67 µg/mL (≈ 630 µM); in series [4], 40.81 ± 1.27 µg/mL (≈ 200 µM); in series [5], 37.75 ± 2.68 µg/mL (≈ 185 µM). Further, the figures for the MNTC in series [1], in series [4] and in series [5] were 3.9 µg/mL, 3.9 µg/mL and 1.0 µg/mL, respectively. The IC50 result in series [2] (Inactivation), in series [2] (Prevention), in series [2] (Treatment), in series [3] (Inactivation), in series [3] (Prevention) and in series [3] (Treatment) was “--” in each case. Further, the IC50 result in series [6] (Inactivation), in series [6] (Prevention) and in series [6] (Treatment) was “--” in each case.

`Cc1nc2ccccc2nc1C(C)O` (centres unmarked) [M5, carbonyl reduction bi-deoxy mequindox]: the TC50 in series [1] amounted to 89.66 ± 2.14 µg/mL (≈ 476 µM); in series [4] it was 40.41 ± 3.21 µg/mL (≈ 215 µM); in series [5], 38.2 ± 2.09 µg/mL (≈ 203 µM). Moreover, the MNTC in series [1], in series [4] and in series [5] was 2.0 µg/mL each time. Besides, the IC50 entry in series [2] (Inactivation), in series [2] (Prevention), in series [2] (Treatment), in series [3] (Inactivation), in series [3] (Prevention) and in series [3] (Treatment) was “--” throughout. For the same molecule, the IC50 entry in series [6] (Inactivation), in series [6] (Prevention) and in series [6] (Treatment) was “--” in each case.

As to `Cc1c(C(C)O)[n+]([O-])c2ccccc2[n+]1[O-]` (centres unmarked) [M6, carbonyl reduction mequindox], the TC50 in series [1] is 89.82 ± 1.57 µg/mL (≈ 408 µM); in series [4], 78.82 ± 3.57 µg/mL (≈ 358 µM); in series [5], 41.26 ± 1.27 µg/mL (≈ 187 µM). Besides, the MNTC in series [1], in series [4] and in series [5] was 2.0 µg/mL each time. Moreover, the IC50 result in series [2] (Inactivation), in series [2] (Prevention), in series [2] (Treatment), in series [3] (Inactivation), in series [3] (Prevention) and in series [3] (Treatment) was “--” each time. In addition, the IC50 entry in series [6] (Inactivation), in series [6] (Prevention) and in series [6] (Treatment) was “--” each time.

Take `NC(=O)c1ncn([C@@H]2O[C@H](CO)[C@@H](O)[C@H]2O)n1` [Ribavirin, ribavirin]: the values for the TC50 in series [1] and in series [5] were 75.49 ± 2.54 µg/mL (≈ 309 µM) and 67.42 ± 2.58 µg/mL (≈ 276 µM), respectively. For the same molecule, the MNTC came to 8.6 µg/mL in series [1] and 4.0 µg/mL in series [5]. The IC50 turned out to be 6.29 ± 0.38 µg/mL in series [2] (Porcine reproductive and respiratory syndrome virus, Inactivation, read-out: IC50); 9.58 ± 0.56 µg/mL in series [2] (Porcine reproductive and respiratory syndrome virus, Prevention, read-out: IC50); 4.64 ± 0.24 µg/mL in series [2] (Porcine reproductive and respiratory syndrome virus, Treatment, read-out: IC50); 0.85 ± 0.17 µg/mL in series [3] (Porcine parvovirus, Inactivation, read-out: IC50); 0.68 ± 0.15 µg/mL in series [3] (Porcine parvovirus, Prevention, read-out: IC50); 0.49 ± 0.07 µg/mL in series [3] (Porcine parvovirus, Treatment, read-out: IC50). Moreover, the IC50 was determined as 1.18 ± 0.21 µg/mL in series [6] (Infectious bursal disease virus, Inactivation, read-out: IC50); 0.87 ± 0.18 µg/mL in series [6] (Infectious bursal disease virus, Prevention, read-out: IC50); 0.58 ± 0.12 µg/mL in series [6] (Infectious bursal disease virus, Treatment, read-out: IC50). Further, the “effectiveness against PRRSV in vitro” value in series [2] (setting [10]) is reported as “good inhibitory activity”. Moreover, in series [3] (setting [10]), the “effectiveness against PPV in vitro” value is given as “good inhibitory activity”. Further, the “effectiveness against IBDV in vitro” value in series [6] (setting [10]) was “good inhibitory activity”.

Turning to `CN(C)[C@@H]1C(O)=C(C(N)=O)C(=O)[C@@]2(O)C(O)=C3C(=O)c4c(O)cccc4[C@@](C)(O)[C@H]3C[C@@H]12` [Tetracycline, tetracycline], the values for the MIC in series [7] (setting [8]) and in series [7] (setting [9]) were 0.4 µg/mL (≈ 0.9 µM) and 0.8 µg/mL (≈ 1.8 µM), respectively.

The values above are taken from publication PMC5011961, “In vitro antimicrobial activities of animal-used quinoxaline 1,4-di-N-oxides against mycobacteria, mycoplasma and fungi” (BMC Veterinary Research, 2016).
